{
  "source": "patent US12441691B2",
  "about": "(Cytokinetics, Inc., priority 2020, dated 2025)",
  "data": [
    {"system": "rabbit skeletal myofibrils (fast skeletal myofibrils)", "assay": "Activation of fast skeletal myofibrils (PUMA assay, AC1.4)", "type": "biochemical", "settings": "calcium at pCa25, AC1.4 = concentration at which the compound increased the enzymatic activity", "outline": "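Detergent-washed rabbit psoas myofibrils (~90% fast fibers), calcium set to give 25% of maximal rate (pCa25). ATPase followed by pyruvate kinase/lactate dehydrogenase-coupled NADH oxidation, absorbance at 340 nm. PM12 buffer: 12 mM PIPES, 2 mM MgCl2, 1 mM DTT, pH 6.8.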", "units": {"AC1.4": "µM"}, "values": [
      {"compound": "CC[C@H](C)[C@H]1C(=O)Nc2ccccc2CN1C(=O)N1CCC[C@H]1C(=O)O", "note": "[Compound 236, ((S)-3-((S)-sec-butyl)-2-oxo-2,3,4,5-tetrahydro-1H-benzo[e][1,4]diazepine-4-carbonyl)-L-proline]", "AC1.4": 3.43},
      {"compound": "CC[C@H](C)[C@H]1C(=O)Nc2ccccc2CN1C(=O)N(C)Cc1coc(C)n1", "note": "[Compound 237, (S)-3-((S)-sec-butyl)-N-methyl-N-((2-methyloxazol-4-yl)methyl)-2-oxo-1,2,3,5-tetrahydro-4H-benzo[e][1,4]diazepine-4-carboxamide]", "AC1.4": 1.86},
      {"compound": "CC[C@H](C)[C@H]1C(=O)Nc2ccccc2CN1C(=O)N1CCCC(C(N)=O)C1", "note": "(stereo partly drawn) [Compound 238, 1-((S)-3-((S)-sec-butyl)-2-oxo-2,3,4,5-tetrahydro-1H-benzo[e][1,4]diazepine-4-carbonyl)piperidine-3-carboxamide]", "AC1.4": 4.49},
      {"compound": "CC[C@H](C)[C@H]1C(=O)Nc2ccccc2CN1C(=O)N1CCC(N(C)C)CC1", "note": "[Compound 239, (S)-3-((S)-sec-butyl)-4-(4-(dimethylamino)piperidine-1-carbonyl)-1,3,4,5-tetrahydro-2H-benzo[e][1,4]diazepin-2-one]", "AC1.4": 1.65},
      {"compound": "CC[C@H](C)[C@H]1C(=O)Nc2ccccc2CN1C(=O)N(C)CCS(C)(=O)=O", "note": "[Compound 240, (S)-3-((S)-sec-butyl)-N-methyl-N-(2-(methylsulfonyl)ethyl)-2-oxo-1,2,3,5-tetrahydro-4H-benzo[e][1,4]diazepine-4-carboxamide]", "AC1.4": 2.87},
      {"compound": "CC[C@H](C)[C@H]1C(=O)Nc2ccccc2CN1C(=O)N1CCCn2c(C)nnc21", "note": "[Compound 241, (S)-3-((S)-sec-butyl)-4-(3-methyl-5,6,7,8-tetrahydro-[1,2,4]triazolo[4,3-a]pyrimidine-8-carbonyl)-1,3,4,5-tetrahydro-2H-benzo[e][1,4]diazepin-2-one]", "AC1.4": 1.35},
      {"compound": "CC[C@H](C)[C@H]1C(=O)Nc2ccccc2CN1C(=O)N1CCC(N(C)C(C)=O)C1", "note": "(stereo partly drawn) [Compound 242, N-(1-((S)-3-((S)-sec-butyl)-2-oxo-2,3,4,5-tetrahydro-1H-benzo[e][1,4]diazepine-4-carbonyl)pyrrolidin-3-yl)-N-methylacetamide]", "AC1.4": 4.30},
      {"compound": "CC[C@H](C)[C@H]1C(=O)Nc2ccccc2CN1C(=O)N1CCN(C(=O)OC)CC1", "note": "[Compound 243, methyl 4-((S)-3-((S)-sec-butyl)-2-oxo-2,3,4,5-tetrahydro-1H-benzo[e][1,4]diazepine-4-carbonyl)piperazine-1-carboxylate]", "AC1.4": 1.93},
      {"compound": "CC[C@H](C)[C@H]1C(=O)Nc2ccccc2CN1C(=O)N1CCCC1c1nc(C)no1", "note": "(stereo partly drawn) [Compound 244, (3S)-3-((S)-sec-butyl)-4-(2-(3-methyl-1,2,4-oxadiazol-5-yl)pyrrolidine-1-carbonyl)-1,3,4,5-tetrahydro-2H-benzo[e][1,4]diazepin-2-one]", "AC1.4": 2.43},
      {"compound": "CC[C@H](C)[C@H]1C(=O)Nc2ccccc2CN1C(=O)N1CCC2(CC1)CNC(=O)C2", "note": "[Compound 245, (S)-3-((S)-sec-butyl)-4-(3-oxo-2,8-diazaspiro[4.5]decane-8-carbonyl)-1,3,4,5-tetrahydro-2H-benzo[e][1,4]diazepin-2-one]", "AC1.4": 3.88},
      {"compound": "CC[C@H](C)[C@H]1C(=O)Nc2ccccc2CN1C(=O)N1CCN(S(C)(=O)=O)CC1", "note": "[Compound 246, (S)-3-((S)-sec-butyl)-4-(4-(methylsulfonyl)piperazine-1-carbonyl)-1,3,4,5-tetrahydro-2H-benzo[e][1,4]diazepin-2-one]", "AC1.4": 1.64},
      {"compound": "CC[C@H](C)[C@H]1C(=O)Nc2ccccc2CN1C(=O)N1CCC[C@H](NS(C)(=O)=O)C1", "note": "[Compound 247, N-((S)-1-((S)-3-((S)-sec-butyl)-2-oxo-2,3,4,5-tetrahydro-1H-benzo[e][1,4]diazepine-4-carbonyl)piperidin-3-yl)methanesulfonamide]", "AC1.4": 2.49},
      {"compound": "CC[C@H](C)[C@H]1C(=O)Nc2ccccc2CN1C(=O)N1CCC[C@@H](NS(C)(=O)=O)C1", "note": "[Compound 248, N-((R)-1-((S)-3-((S)-sec-butyl)-2-oxo-2,3,4,5-tetrahydro-1H-benzo[e][1,4]diazepine-4-carbonyl)piperidin-3-yl)methanesulfonamide]", "AC1.4": 3.71},
      {"compound": "CC[C@H](C)[C@H]1C(=O)Nc2ccccc2CN1C(=O)N1CC(C(=O)O)C1", "note": "[Compound 249, 1-((S)-3-((S)-sec-butyl)-2-oxo-2,3,4,5-tetrahydro-1H-benzo[e][1,4]diazepine-4-carbonyl)azetidine-3-carboxylic acid]", "AC1.4": 4.51},
      {"compound": "CC[C@H](C)[C@H]1C(=O)Nc2ccccc2CN1C(=O)N1CC(C(N)=O)C1", "note": "[Compound 250, 1-((S)-3-((S)-sec-butyl)-2-oxo-2,3,4,5-tetrahydro-1H-benzo[e][1,4]diazepine-4-carbonyl)azetidine-3-carboxamide]", "AC1.4": 0.60},
      {"compound": "CC[C@H](C)[C@H]1C(=O)Nc2ccccc2CN1C(=O)Nc1nncs1", "note": "[Compound 251, (S)-3-((S)-sec-butyl)-2-oxo-N-(1,3,4-thiadiazol-2-yl)-1,2,3,5-tetrahydro-4H-benzo[e][1,4]diazepine-4-carboxamide]", "AC1.4": 0.08},
      {"compound": "CC[C@H](C)[C@H]1C(=O)Nc2ccccc2CN1C(=O)N[C@@H](C(N)=O)c1ccccc1", "note": "[Compound 252, (S)-N-((R)-2-amino-2-oxo-1-phenylethyl)-3-((S)-sec-butyl)-2-oxo-1,2,3,5-tetrahydro-4H-benzo[e][1,4]diazepine-4-carboxamide]", "AC1.4": 0.44},
      {"compound": "CC[C@H](C)[C@H]1C(=O)Nc2ccccc2CN1C(=O)Nc1ccc(=O)n(CC)c1", "note": "[Compound 253, (S)-3-((S)-sec-butyl)-N-(1-ethyl-6-oxo-1,6-dihydropyridin-3-yl)-2-oxo-1,2,3,5-tetrahydro-4H-benzo[e][1,4]diazepine-4-carboxamide]", "AC1.4": 0.08},
      {"compound": "CC[C@H](C)[C@H]1C(=O)Nc2ccccc2CN1C(=O)Nc1ccc(=O)n(CC2CC2)c1", "note": "[Compound 254, (S)-3-((S)-sec-butyl)-N-(1-(cyclopropylmethyl)-6-oxo-1,6-dihydropyridin-3-yl)-2-oxo-1,2,3,5-tetrahydro-4H-benzo[e][1,4]diazepine-4-carboxamide]", "AC1.4": 0.07},
      {"compound": "CC[C@H](C)[C@H]1C(=O)Nc2ccccc2CN1C(=O)Nc1cccn(CCOC)c1=O", "note": "[Compound 255, (S)-3-((S)-sec-butyl)-N-(1-(2-methoxyethyl)-2-oxo-1,2-dihydropyridin-3-yl)-2-oxo-1,2,3,5-tetrahydro-4H-benzo[e][1,4]diazepine-4-carboxamide]", "AC1.4": 0.13},
      {"compound": "CC[C@H](C)[C@H]1C(=O)Nc2ccccc2CN1C(=O)N[C@@H](C)C(N)=O", "note": "[Compound 256, (S)-N-((S)-1-amino-1-oxopropan-2-yl)-3-((S)-sec-butyl)-2-oxo-1,2,3,5-tetrahydro-4H-benzo[e][1,4]diazepine-4-carboxamide]", "AC1.4": 1.89},
      {"compound": "CC[C@H](C)[C@H]1C(=O)Nc2ccccc2CN1C(=O)Nc1cc(C(F)(F)F)c[nH]c1=O", "note": "[Compound 257, (S)-3-((S)-sec-butyl)-2-oxo-N-(2-oxo-5-(trifluoromethyl)-1,2-dihydropyridin-3-yl)-1,2,3,5-tetrahydro-4H-benzo[e][1,4]diazepine-4-carboxamide]", "AC1.4": 0.02},
      {"compound": "CC[C@H](C)[C@H]1C(=O)Nc2ccccc2CN1C(=O)Nc1cc(-c2ccncc2)c[nH]c1=O", "note": "[Compound 258, (S)-3-((S)-sec-butyl)-2-oxo-N-(6-oxo-1,6-dihydro-[3,4′-bipyridin]-5-yl)-1,2,3,5-tetrahydro-4H-benzo[e][1,4]diazepine-4-carboxamide]", "AC1.4": 0.29},
      {"compound": "CC[C@H](C)[C@H]1C(=O)Nc2ccccc2CN1C(=O)NCC(=O)N1CCC[C@H]1C(=O)O", "note": "[Compound 259, ((S)-3-((S)-sec-butyl)-2-oxo-2,3,4,5-tetrahydro-1H-benzo[e][1,4]diazepine-4-carbonyl)glycyl-L-proline]", "AC1.4": 2.44},
      {"compound": "CC[C@H](C)[C@H]1C(=O)Nc2ccccc2CN1C(=O)NCCN1CCNC1=O", "note": "[Compound 260, (S)-3-((S)-sec-butyl)-2-oxo-N-(2-(2-oxoimidazolin-1-yl)ethyl)-1,2,3,5-tetrahydro-4H-benzo[e][1,4]diazepine-4-carboxamide]", "AC1.4": 1.91},
      {"compound": "CC[C@H](C)[C@H]1C(=O)Nc2ccccc2CN1C(=O)NCC1(CO)COC1", "note": "[Compound 261, (S)-3-((S)-sec-butyl)-N-((3-(hydroxymethyl)oxetan-3-yl)methyl)-2-oxo-1,2,3,5-tetrahydro-4H-benzo[e][1,4]diazepine-4-carboxamide]", "AC1.4": 3.34},
      {"compound": "CC[C@H](C)[C@H]1C(=O)Nc2ccccc2CN1C(=O)NCCCCN1CCC(C(N)=O)CC1", "note": "[Compound 262, (S)-3-((S)-sec-butyl)-N-(4-(4-carbamoylpiperidin-1-yl)butyl)-2-oxo-1,2,3,5-tetrahydro-4H-benzo[e][1,4]diazepine-4-carboxamide]", "AC1.4": 0.46},
      {"compound": "CC[C@H](C)[C@H]1C(=O)Nc2ccccc2CN1C(=O)NCC(C)(C)C(N)=O", "note": "[Compound 263, (S)-N-(3-amino-2,2-dimethyl-3-oxopropyl)-3-((S)-sec-butyl)-2-oxo-1,2,3,5-tetrahydro-4H-benzo[e][1,4]diazepine-4-carboxamide]", "AC1.4": 2.70},
      {"compound": "CC[C@H](C)[C@H]1C(=O)Nc2ccccc2CN1C(=O)N1CC(N2CCCC2)C1", "note": "[Compound 264, (S)-3-((S)-sec-butyl)-4-(3-(pyrrolidin-1-yl)azetidine-1-carbonyl)-1,3,4,5-tetrahydro-2H-benzo[e][1,4]diazepin-2-one]", "AC1.4": 0.84},
      {"compound": "CC[C@H](C)[C@H]1C(=O)Nc2ccccc2CN1C(=O)N1CC(N2CCN(C)CC2)C1", "note": "[Compound 265, (S)-3-((S)-sec-butyl)-4-(3-(4-methylpiperazin-1-yl)azetidine-1-carbonyl)-1,3,4,5-tetrahydro-2H-benzo[e][1,4]diazepin-2-one]", "AC1.4": 0.70},
      {"compound": "CC[C@H](C)[C@H]1C(=O)Nc2ccccc2CN1C(=O)N1CC(N2CCOCC2)C1", "note": "[Compound 266, (S)-3-((S)-sec-butyl)-4-(3-morpholinoazetidine-1-carbonyl)-1,3,4,5-tetrahydro-2H-benzo[e][1,4]diazepin-2-one]", "AC1.4": 2.47}
    ]}
  ]
}
